The values below come from patent publication US12473289B2, “Heterocyclic compounds as delta-5 desaturase inhibitors and methods of use” (Amgen Inc., priority 2019, dated 2025).

Structures are written as SMILES.

The target in test [1] is Delta-5-Desaturase (D5D) (Homo sapiens (Human), UniProt O60427). The test can be described thus: In vitro measurement of Delta-5-Desaturase inhibitory activity using DGLA-CoA and Arachidonyl-CoA mass spectrometric assays. In kind it is biochemical. The note with it: membrane preparations of D5D-overexpressing HEK293 6E cells; averaged over at least two independent runs. An outline of the steps:
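Membranes from D5D-overexpressing HEK293 6E cells (10 μg/mL final) in Tris pH 7.5 with MgCl2, octyl glucoside and TCEP were mixed 1:1 with substrate solution (0.01 mM DGLA, 0.25 mM NADH, 0.25 mM ATP, 0.05 mM CoA) for 1 h at ambient temperature. RapidFire SPE-MS/MS MRM; IC50 by 4-parameter fit, ≥2 runs.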

The subject of test [2] is Diet-Induced Obese (DIO) mice. Briefly: Assessment of D5D inhibitor in Diet-Induced Obese (DIO) mice. Type of test: in vivo. The note with it: for Blood glucose: day 52, 4-hour fasted; for Cholesterol / Insulin / LDL cholesterol / Triglycerides: day 52, plasma; for Fat mass / Lean mass: day 54, EchoMRI; for AA / DGLA: day 56, plasma; for Body weight / Liver weights / epididymal WAT / inguinal WAT: day 56. An excerpt: Assessment of D5D) Inhibitor in Diet-Induced Obese (DIO) Mice
Thirty-six male C57BL/6J DIO mice (Jackson Laboratories, stock No.: 380050) fed high-fat diet (Research Diets, Inc., D12492) for 14 weeks. All animals were given free access to water and chow. Animals were acclimated to per os dosing for 3 days prior to the start of the experiment. Animals were randomized on body weight, fat mass, lean mass, and blood glucose concentrations in to 4 groups of 8 animals per group. Animals were daily dosed per os with either: vehicle (2% hydroxypropyl methyl cellulose, 1% Tween 80 in water), Example 1-68 at 30 mg/kg, Example 1-34 at 10 mg/kg, and Example 1-27 at 10 mg/kg, all compounds were formulated in 2% hydroxypropyl methylcellulose, 1% Tween 80 in water. […] On day 52, a 4-hour fasted blood collection was performed, blood glucose was immediately measured, and plasma samples were created from the remaining blood and used to measure cholesterol, triglycerides, LDL cholesterol, and insulin. On day 54, body composition (EchoMRI) was determined. On day 56 the animals were sacrificed, and plasma was collected for measurement of DGLA and AA concentrations. Liver, epididymal white adipose tissue and inguinal white adipose tissue weights were recorded. Data was analyzed using GraphPad Prism v. 7.04.
All compounds led to weight loss over the course of the experiment (Table 28) compared to vehicle controls. Consistently fat and lean mass was reduced, along with lower inguinal and epididymal white adipose tissue (WAT) weights at necropsy. Blood glucose and plasma insulin levels were both reduced by the FADS1 inhibitors, along with reductions in plasma cholesterol, LDL cholesterol and triglycerides. Evidence of target engagement was established by observing increases in plasma DGLA and decreases in plasma AA.

Test [3] addresses Delta-5-Desaturase (D5D) (Mus musculus (Mouse), UniProt Q920L1). Briefly: In vivo measurement of Delta-5-Desaturase inhibitory activity (plasma AA/DGLA ratio in DIO mice). The following applies: single oral dose 30 mg/kg, read-out: Average % D5D Inhibition expressed as Plasma Endogenous AA/DGLA Ratio. The procedure:
In vivo Measurement of Delta-5-Desaturase Inhibitory Activity
Diet-induced obese (DIO; Jackson Laboratories strain #3800050) mice were used to screen for pharmacodynamic (PD) activity of test compounds. Generally, 14 to 24 week old DIO mice, were administered test compounds formulated in the vehicle of 2% hydroxypropyl methylcellulose (HPMC) and 1% Tween80. Animals were dosed on body weight by oral gavage with a single dose (30 mg/kg) for PD studies. Necropsy included plasma collection for PUFA analysis. 10 μl of plasma or standards diluted in surrogate matrix (65 g/l bovine serum albumin in Dulbecco's phosphate-buffered saline) were mixed with 10 μl of an internal standard (100 μM alpha-linolenic acid-d14 (ALA-d14, Cayman Chemical)) in a 96 well plate. 100 μl of 2N NAOH was added to the mixture for subsequent saponification at 65° C. for 1 hour. The mixture was then acidified with 50 μl of formic acid followed by two consecutive hexane extractions. Hexane (500 μl) was added and the mixture thoroughly mixed by vortexing, followed by centrifugation at 4,000 rpm for 15 min. The hexane phase was transferred to a new 1 ml 96 well plate and the remaining aqueous layer was extracted with hexane. The organic extracts were combined and the solvent was removed by placing the plate under nitrogen gas at 55° C. 250 μl of 90% methanol was added to the plate followed by vortexing for 2 minutes. 200 μl of the samples were transferred to a new 96 well polypropylene plate. The samples were analyzed on a LC-MS/MS for the following PUFAs: arachidonic acid (AA), dihomo-gamma-linolenic acid (DGLA), with ALA-d14 as the internal standard. Description of the LC-MS/MS method: 5 μl of sample was injected onto a Poroshell 120 EC-C18 3.0×50 mm, 1.9 μm id column. […] The PUFA peak areas were quantified by using the SCIEX Analyst software. […] The relative decrease of the AA/DGLA ratio of the test compound administered group relative to the vehicle administered group was calculated and used as an index for the degree of D5D inhibition.
The results presented in Table 27 were obtained using certain compounds described herein in the in vivo protocol described above.

Where [4] appears, read: day 50-52, 10 mg/kg daily per os.

Delta-5-Desaturase (D5D) (Mus musculus (Mouse), UniProt Q920L1), sequence (Q920L1 whole entry): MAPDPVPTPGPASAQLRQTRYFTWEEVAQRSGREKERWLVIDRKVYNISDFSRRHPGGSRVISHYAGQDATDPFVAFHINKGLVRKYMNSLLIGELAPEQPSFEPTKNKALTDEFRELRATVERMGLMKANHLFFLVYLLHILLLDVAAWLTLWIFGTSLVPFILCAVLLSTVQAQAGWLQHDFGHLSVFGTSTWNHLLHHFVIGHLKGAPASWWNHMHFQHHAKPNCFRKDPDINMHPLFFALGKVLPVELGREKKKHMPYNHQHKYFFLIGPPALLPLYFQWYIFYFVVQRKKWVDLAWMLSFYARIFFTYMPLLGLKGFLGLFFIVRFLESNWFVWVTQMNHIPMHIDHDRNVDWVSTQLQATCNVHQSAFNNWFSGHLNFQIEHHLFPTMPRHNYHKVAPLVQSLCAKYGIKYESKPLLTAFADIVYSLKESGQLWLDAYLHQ
Delta-5-Desaturase (D5D) (Homo sapiens (Human), UniProt O60427), sequence (O60427 whole entry, species assumed): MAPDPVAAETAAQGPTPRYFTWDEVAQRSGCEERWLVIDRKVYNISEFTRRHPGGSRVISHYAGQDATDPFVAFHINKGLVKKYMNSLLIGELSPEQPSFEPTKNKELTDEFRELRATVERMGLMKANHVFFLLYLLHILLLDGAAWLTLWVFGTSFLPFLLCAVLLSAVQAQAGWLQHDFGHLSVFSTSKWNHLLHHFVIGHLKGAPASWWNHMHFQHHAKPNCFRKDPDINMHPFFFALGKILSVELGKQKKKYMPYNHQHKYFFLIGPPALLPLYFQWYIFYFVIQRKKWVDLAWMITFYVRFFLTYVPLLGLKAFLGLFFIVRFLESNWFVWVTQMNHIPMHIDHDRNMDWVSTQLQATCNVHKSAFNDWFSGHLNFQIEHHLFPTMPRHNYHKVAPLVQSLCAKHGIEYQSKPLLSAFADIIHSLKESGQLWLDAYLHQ

By IC50 is commonly meant the concentration at which inhibition is half-maximal. A higher IC50 goes with weaker potency in that assay. For `N#Cc1ccn2c(=O)c(-c3cnn(CC(F)(F)C(F)(F)F)c3)c(C(F)(F)F)nc2c1` [Example 1-27, 4-oxo-3-(1-(2,2,3,3,3-pentafluoropropyl)-1H-pyrazol-4-yl)-2-(trifluoromethyl)-4H-pyrido[1,2-a]pyrimidine-8-carbonitrile], inhibition at Delta-5-Desaturase (D5D) [1] was half-maximal at 18.7 nM (IC50). Moreover, in test [2] (day 0-2, 10 mg/kg daily per os), the Food consumption amounted to 2.5 ± 0.1 g/day. The same compound had a Food consumption in test [2] (setting [4]) of 3.1 ± 0.1 g/day. Moreover, in test [2] (10 mg/kg daily per os), the Blood glucose turned out to be 178.8 ± 7.5 mg/dL, the Cholesterol was determined as 191.3 ± 14.5 mg/dL, the Insulin was determined as 3.3 ± 1.2 ng/mL and the LDL cholesterol was found to be 104.6 ± 9.1 mg/dL. In test [2] (10 mg/kg daily per os), this compound gave a Triglycerides of 24.1 ± 1.2 mg/dL, a Fat mass of 16.9 ± 0.5 g, a Lean mass of 28.1 ± 0.5 g and an AA of 60.8 ± 1.9 µg/mL. Further, in test [2] (10 mg/kg daily per os), the DGLA is 310.3 ± 13.7 µg/mL, the Body weight is on record as 45.7 ± 1.1 g, the Liver weights was 2.8 ± 0.2 g and the “epididymal WAT” value was determined as 1.8 ± 0.1 g. Besides, the “inguinal WAT” value in test [2] (10 mg/kg daily per os) amounted to 1.9 ± 0.1 g. In addition, the inhibition in vivo at 30 mg/kg on Delta-5-Desaturase (D5D) [3] is 78%.
In turn, `COc1ccn2c(=O)c(-c3cnn(CC(F)(F)C(F)(F)F)c3)c(C(F)(F)F)nc2c1` [Example 1-68, 8-methoxy-3-(1-(2,2,3,3,3-pentafluoropropyl)-1H-pyrazol-4-yl)-2-(trifluoromethyl)-4H-pyrido[1,2-a]pyrimidin-4-one] displayed an IC50 at Delta-5-Desaturase (D5D) [1] of 11.6 nM. In test [2] (day 0-2, 30 mg/kg daily per os), this compound returned a Food consumption of 2.7 ± 0.1 g/day. Also, the Food consumption in test [2] (day 50-52, 30 mg/kg daily per os) is on record as 2.6 ± 0.1 g/day. In test [2] (30 mg/kg daily per os), this compound had a Blood glucose of 146.6 ± 7.1 mg/dL, a Cholesterol of 166.2 ± 7.8 mg/dL, an Insulin of 1.1 ± 0.2 ng/mL and an LDL cholesterol of 86.5 ± 12.5 mg/dL. Moreover, in test [2] (30 mg/kg daily per os), the Triglycerides came to 14.5 ± 1.0 mg/dL, the Fat mass was 13.3 ± 1.0 g, the Lean mass was 26.7 ± 0.5 g and the AA was 38.0 ± 1.6 µg/mL. Further, in test [2] (30 mg/kg daily per os), the DGLA was found to be 258.4 ± 8.5 µg/mL, the Body weight is listed as 40.7 ± 1.5 g, the Liver weights worked out at 2.9 ± 0.2 g and the “epididymal WAT” value is 1.6 ± 0.1 g. The “inguinal WAT” value in test [2] (30 mg/kg daily per os) is given as 1.6 ± 0.2 g. Also, the inhibition in vivo at 30 mg/kg at Delta-5-Desaturase (D5D) [3] was determined as 80%.
On to `COc1ccn2c(=O)c(-c3cnn(CC(F)(F)C(F)(F)F)c3)c(C(F)(F)F)nc2n1` [Example 1-34, 8-methoxy-3-(1-(2,2,3,3,3-pentafluoropropyl)-1H-pyrazol-4-yl)-2-(trifluoromethyl)-4H-pyrimido[1,2-a]pyrimidin-4-one], for which the IC50 against Delta-5-Desaturase (D5D) [1] stood at 30.7 nM. Besides, the Food consumption in test [2] (day 0-2, 10 mg/kg daily per os) is reported as 2.2 ± 0.1 g/day. Further, the Food consumption in test [2] (setting [4]) is given as 3.0 ± 0.1 g/day. In test [2] (10 mg/kg daily per os), this compound displayed a Blood glucose of 150.5 ± 8.3 mg/dL, a Cholesterol of 177.1 ± 12.6 mg/dL, an Insulin of 0.6 ± 0.2 ng/mL and an LDL cholesterol of 88.6 ± 9.2 mg/dL. Further, in test [2] (10 mg/kg daily per os), the Triglycerides amounted to 15.6 ± 2.3 mg/dL, the Fat mass amounted to 7.4 ± 0.9 g, the Lean mass is 26.6 ± 0.7 g and the AA came out at 29.4 ± 0.9 µg/mL. In test [2] (10 mg/kg daily per os), the DGLA is 161.4 ± 8.5 µg/mL, the Body weight is listed as 34.7 ± 1.6 g, the Liver weights was 2.9 ± 0.3 g and the “epididymal WAT” value was determined as 0.9 ± 0.1 g. The “inguinal WAT” value in test [2] (10 mg/kg daily per os) amounted to 0.8 ± 0.1 g. The inhibition in vivo at 30 mg/kg on Delta-5-Desaturase (D5D) [3] stood at 66%.
